Data from patent publication US6451339B2, “Compositions and methods for improved delivery of hydrophobic agents” (Lipocine, Inc., priority 1999, dated 2002).

How the values were obtained:
[1] = value reported by the manufacturer of the commercial product, a rough average, or inventors' judgment; cited from earlier work
[2] = Surfactant combinations giving clear aqueous dispersions (maximum hydrophobic surfactant, visual optical clarity); details: for approximate maximum grams of hydrophobic surfactant per 100 g of hydrophilic surfactant giving acceptable optical clarity: 10× aqueous dispersion, no solubilizer

approximate maximum grams of hydrophobic surfactant per 100 g of hydrophilic surfactant giving a clear aqueous dispersion ([2]; hydrophilic surfactant Cremophor RH40 + 20% Ethanol): 80 g per 100 g of hydrophilic sur
approximate maximum grams of hydrophobic surfactant per 100 g of hydrophilic surfactant giving a clear aqueous dispersion ([2]; hydrophilic surfactant Cremophor RH40 + 20% Glycofurol): 80 g per 100 g of hydrophilic sur
approximate maximum grams of hydrophobic surfactant per 100 g of hydrophilic surfactant giving a clear aqueous dispersion ([2]; hydrophilic surfactant Cremophor RH40 + 20% PEG-400): 80 g per 100 g of hydrophilic sur
approximate maximum grams of hydrophobic surfactant per 100 g of hydrophilic surfactant giving a clear aqueous dispersion ([2]; hydrophilic surfactant Cremophor RH40 + 20% Triacetin): 80 g per 100 g of hydrophilic sur
approximate maximum grams of hydrophobic surfactant per 100 g of hydrophilic surfactant giving a clear aqueous dispersion ([2]; hydrophilic surfactant Cremophor RH40, solubilizer (None), reproduced from Table 19): 80 g per 100 g of hydrophilic sur
approximate maximum grams of hydrophobic surfactant per 100 g of hydrophilic surfactant giving acceptable optical clarity ([2]; hydrophilic surfactant PEG-8 Capric/Caprylic (Labrasol)): 10 g per 100 g of hydrophilic sur
approximate maximum grams of hydrophobic surfactant per 100 g of hydrophilic surfactant giving acceptable optical clarity ([2]; hydrophilic surfactant PEG-25 Glyceryl trioleate (Tagat TO)): 10 g per 100 g of hydrophilic sur
approximate maximum grams of hydrophobic surfactant per 100 g of hydrophilic surfactant giving acceptable optical clarity ([2]; hydrophilic surfactant PEG-35 Castor Oil (Incrocas 35)): 80 g per 100 g of hydrophilic sur
approximate maximum grams of hydrophobic surfactant per 100 g of hydrophilic surfactant giving acceptable optical clarity ([2]; hydrophilic surfactant PEG-40H Castor Oil (Cremophor RH-40)): 80 g per 100 g of hydrophilic sur
approximate maximum grams of hydrophobic surfactant per 100 g of hydrophilic surfactant giving acceptable optical clarity ([2]; hydrophilic surfactant PEG-60 Corn Oil (Crovol M-70)): 10 g per 100 g of hydrophilic sur
approximate maximum grams of hydrophobic surfactant per 100 g of hydrophilic surfactant giving acceptable optical clarity ([2]; hydrophilic surfactant Polysorbate 80 (Tween 80)): 15 g per 100 g of hydrophilic sur
approximate maximum grams of hydrophobic surfactant per 100 g of hydrophilic surfactant giving acceptable optical clarity ([2]; hydrophilic surfactant Polysorbate-20 (Tween 20)): 20 g per 100 g of hydrophilic sur
Substance: mono- and diacetylated monoglycerides [Mono- and monoglycerides]
HLB [1]: 3.8-4
